# Reference: patent US9944597B2, “Polysubstituted pyrroles having microtubule-disrupting, cytotoxic and antitumor activities and methods of use thereof” (THE BOARD OF REGENTS OF THE UNIVERSITY OF TEXAS SYSTEM, priority 2013, dated 2018)
# Where two headings read alike, the source gives them in different places.
# Tests used:
# [1] = tested on: variety of cancer cell lines; settings: against cancer cell lines; cited from earlier work
# [2] = biological target: colchicine binding site on tubulin (Sus scrofa, UniProt P02554); assay: Colchicine site binding, fluorometric assay
# [3] = tested on: MDA-MB-435 (human melanoma cancer cells); assay: Antiproliferative SRB assay, MDA-MB-435; type: cell-based; settings: Homo sapiens, MDA-MB-435, read-out: MDA-MB-435 Anti-Proliferative Activity, IC50
# Description: (§1) Cell Culture. Various representative cancer and other cell lines were sourced and grown as described previously [Mooberry, S. L., et al., Mol. Pharm. 72, 132-140 (2007)]. MDA-MB-435 (human melanoma cancer cells), and MDA-MB-231 (human breast cancer cells) were grown in IMEM Richter's Medium (Life Technologies, Grand Island, N.Y.) with 10% FBS (Hyclone, Logan, Utah) and 25 μg/mL gentamicin sulfate (Life Technologies). A-10 (embryonic rat vascular smooth muscle cells) and HeLa (human cervical cancer cells), SK-OV-3 (human ovarian cancer cells) and SK-OV-3-MDR-1-M6/6 (a clone of the SK-OV-3 that was generated from SK-OV-3 cells by adenovirus-mediated expression of MDR1) were grown in Basal Medium Eagle (BME, Sigma-Aldrich, St. Louis, Mo.) containing Earle's salts, 50 μg/ml gentamicin sulfate, and 10% FBS. HeLa cells (a single-cell clone derived from transduction of HeLa cells with wild-type (WT) βIII-tubulin) were grown in Dulbecco's Modified Eagle's Medium (DMEM, Life Technologies) containing 50 μg/mL gentamicin sulfate and 10% FBS.
# (§2) Antiproliferative Effects. The pyrrole compounds were evaluated for their antiproliferative effects in a panel of cancer cell lines. Cells were plated into 96-well plates at predetermined densities and allowed to attach and proliferate for 24 hr, and then the compounds were added. After a 48 hr exposure to the compounds, the cells were fixed with trichloroacetic acid and cellular protein was determined using the sulforhodamine B (SRB) assay (Skehan et al., J. Natl. Cancer Inst. 82, 1107-12, (1990); Boyd and Paull Drug Devel. Res. 34, 91-109, (1995)). Concentration response curves were constructed, and the IC50 (the concentration required to inhibit proliferation by 50%) values were determined from the linear portions of the log concentration-response curves as described previously [Tinley, T. L., et al., Cancer Res. 63, 3211-3220, (2003)] as shown in Table 48.
# [4] = tested on: HeLa (human cervical cancer cells); assay: Antiproliferative SRB assay, HeLa; type: cell-based; settings: Homo sapiens, HeLa
# Description: as §1, §2
# (§3) First, drug resistance mediated by the expression of βIII tubulin was evaluated in an isogenic HeLa cell line pair. Expression of the βIII tubulin isotype is associated with clinical drug resistance to the taxanes in ovarian cancer, non small-cell lung cancer and breast cancer [Galmarini, C. M., et al., Clin. Cancer Res. 14, 4511-4516 (2008)]. Secondly, drug resistance mediated by the expression of the drug efflux pump protein, Pgp, was evaluated in the isogenic SK-OV-3 cell line pair. The expression of Pgp can lead to lower intracellular drug concentrations and diminished cytotoxic effects both in vitro and in vivo. All tubulin-binding anticancer drugs used currently in the clinic, except cabazitaxel, are substrates for Pgp, thus limiting their utility in drug resistant tumors [Penson, R. T., et al., Gynecol. Oncol. 93, 98-106 (2004)]. Differences in sensitivity between the parent and transformed cell line, indicative of resistance, was determined by calculating relative resistance (Rr) values in the two pairs of isogenic cell lines (dividing the IC50 of the expressing cell line by the IC50 of the parental cell line).
# [5] = tested on: SK-OV-3 (human ovarian cancer cells); assay: Antiproliferative SRB assay, SK-OV-3; type: cell-based; settings: Homo sapiens
# Description: as §1, §2
# as §3, with “The expression of Pgp can lead to lower intracellular drug concentrations and diminished cytotoxic effects both in vitro and in vivo.” left out
# [6] = tested on: HeLa WT-β-III cells; assay: Antiproliferative SRB assay, βIII-tubulin expressing HeLa; type: cell-based, human; settings: for IC50: Homo sapiens, HeLa, Table 49, βIII tubulin expressing line, 48 hr, SRB assay; for Rr (β-III): relative resistance: IC50 of expressing line divided by IC50 of parental HeLa
# Description: as §1, §2, §3
# [7] = tested on: SK-OV-3-MDR-1-6/6 cells; assay: Antiproliferative SRB assay, Pgp expressing SK-OV-3; type: cell-based, human; settings: for IC50: Homo sapiens, SK-OV-3, Table 49, Pgp expressing line, 48 hr, SRB assay; for Rr (Pgp): relative resistance: IC50 of expressing line divided by IC50 of parental SK-OV-3
# Description: as §1, §2
# as §3, with “The expression of Pgp can lead to lower intracellular drug concentrations and diminished cytotoxic effects both in vitro and in vivo.” left out
# [8] = tested on: A-10 cells; assay: Cellular microtubule loss by indirect immunofluorescence; type: cell-based, rat; settings: Rattus norvegicus, A10; Table 50; concentration causing approximately 50% loss of interphase microtubules; read-out: EC50 Values (nM) for Microtubule Loss in A-10 cells
# Description: The effects of representative compounds on cellular microtubules were evaluated in A-10 (embryonic rat vascular smooth muscle cell line) cells using indirect immunofluorescence techniques as previously described (Tinley et al., Cancer Res. 63, 3211-20 (2003)). Cells were visualized using a Nikon Eclipse 80i fluorescence microscope and NIS Elements software. Changes in both interphase and mitotic microtubules were noted and photographed. The EC50 values, the concentration that causes approximately 50% loss of interphase microtubules was determined by evaluating a range of concentrations of each compound and the percent cellular microtubule depolymerization that was observed visually at each concentration was noted.
# Microtubules were visualized by indirect immunofluorescence using a β-tubulin antibody, and the DNA was visualized with DAPI. A representative concentration response curve for NT-7-16 is also shown in FIG. 1 that was used to calculate its corresponding EC50 for microtubule loss. Concentration response curves for microtubule loss were plotted using data from at least three experiments for each compound and the corresponding EC50 values for microtubule loss are presented in Table 50.
# [9] = biological target: T1, purified porcine brain tubulin (Sus scrofa, UniProt P02554); assay: Inhibition of polymerization of purified tubulin (absorbance at 340 nm); type: biochemical; settings: compound at 2 μM
# T1 construct: of Purified Porcine Brain Tubulin; from tissue; host or cells: porcine brain
# [10] = tested on: HeLa cells; assay: Cell cycle distribution by flow cytometry; type: cell-based, human; settings: HeLa cells treated for 18 hr; FIG. 3: 25 nM NT-7-16, 12.5 nM paclitaxel
# Description: The effects of NT-7-16 on cell cycle distribution were determined. […] The cells were stained with Kirshan's reagent (Kirshan, Cell Biol. 66, 188-93 (1975)), and cell cycle distribution was measured using a Millipore Muse flow cytometer.
# The effects of NT-7-16 on cell cycle distribution were determined. […] The cells were stained with Kirshan's reagent (Kirshan Cell Biol. 66, 188-93. (1975)), and cell cycle distribution was measured using a Millipore Muse flow cytometer.
# [11] = Table 48, 48 hr exposure, SRB assay
# [12] = Table 48, 48 hr exposure, read-out: HeLa Anti-Proliferative Activity, IC50
# [13] = Table 49, parental line, 48 hr, read-out: HeLa IC50
# [14] = SK-OV-3, Table 48, 48 hr exposure, read-out: SK-OV-3 Anti-Proliferative Activity, IC50
# [15] = SK-OV-3, Table 49, parental line, 48 hr, read-out: SK-OV-3 IC50
# T1 sequence (P02554 whole entry): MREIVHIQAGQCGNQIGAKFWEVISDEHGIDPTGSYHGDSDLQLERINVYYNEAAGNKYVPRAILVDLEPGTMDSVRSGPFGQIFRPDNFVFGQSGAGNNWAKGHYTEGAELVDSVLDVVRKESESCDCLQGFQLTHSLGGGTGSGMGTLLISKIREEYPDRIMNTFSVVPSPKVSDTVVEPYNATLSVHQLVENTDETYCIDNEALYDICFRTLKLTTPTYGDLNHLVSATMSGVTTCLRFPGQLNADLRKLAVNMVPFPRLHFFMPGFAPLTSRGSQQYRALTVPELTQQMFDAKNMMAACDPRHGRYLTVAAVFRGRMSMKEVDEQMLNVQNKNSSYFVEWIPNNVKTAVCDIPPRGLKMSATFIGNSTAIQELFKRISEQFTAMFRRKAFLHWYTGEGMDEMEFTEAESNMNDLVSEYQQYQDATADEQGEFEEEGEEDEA
# T1 sequence (P02550 whole entry partner): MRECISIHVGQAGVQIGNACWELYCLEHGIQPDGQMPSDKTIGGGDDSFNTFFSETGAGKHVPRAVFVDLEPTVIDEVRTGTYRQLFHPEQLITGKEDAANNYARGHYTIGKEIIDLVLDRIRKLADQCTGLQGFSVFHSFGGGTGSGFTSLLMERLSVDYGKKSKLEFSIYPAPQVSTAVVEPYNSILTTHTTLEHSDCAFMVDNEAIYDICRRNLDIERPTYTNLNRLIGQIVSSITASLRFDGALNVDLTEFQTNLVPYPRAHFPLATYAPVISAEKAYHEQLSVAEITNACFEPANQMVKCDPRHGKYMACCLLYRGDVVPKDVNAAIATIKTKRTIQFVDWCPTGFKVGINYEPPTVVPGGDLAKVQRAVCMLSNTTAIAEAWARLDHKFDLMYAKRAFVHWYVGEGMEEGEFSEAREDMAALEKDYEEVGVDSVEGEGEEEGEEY
# Chain of colchicine binding site on tubulin (P02554 whole entry): as the sequence (P02554 whole entry) above
# Chain of colchicine binding site on tubulin (P02550 whole entry partner): as the sequence (P02550 whole entry partner) above
SMILES,fold less active than JG-03-14 in vitro [1],effect on colchicine binding ([2]; at 100 μM),effect on colchicine binding (FIG. 9) ([2]; result in words),"IC50 [3, 11]",IC50 ([3]; Table 52),"IC50 [4, 12]","IC50 [4, 13]","IC50 [5, 14]","IC50 [5, 15]",IC50 [6],Rr (β-III) [6],IC50 [7],Rr (Pgp) [7],EC50 [8],inhibition at 2 µM [9],melting point,cell cycle distribution [10]
"CCOC(=O)c1[nH]c(Br)c(-c2cc(OC)c(OC)c(OC)c2)c1Br [4-[(3,4,5-trimethoxy)-phenyl]-3,5-dibromopyrrole 2-carboxylic acid ethyl ester]",more than 350 fold,–,–,–,–,–,–,–,–,–,–,–,–,–,–,–,–
"CC[C@]1(O)C[C@@H]2CN(CCc3c([nH]c4ccccc34)[C@@](C(=O)OC)(c3cc4c(cc3OC)N(C)[C@H]3[C@@](O)(C(=O)OC)[C@H](OC(C)=O)[C@]5(CC)C=CCN6CC[C@]43[C@@H]65)C2)C1 [vinblastine, reference compound]",–,no effect,does not,–,–,–,–,–,–,–,–,–,–,–,–,–,–
"CCOC(=O)c1[nH]c(C(F)F)c(-c2ccc(OC)c(OC)c2OC)c1Br [Example 6, 3-Bromo-4-(2,3,4-trimethoxyphenyl)-5-(difluoromethinyl)-1H-pyrrole 2-carboxylic acid ethyl ester]",–,–,–,113 ± 6 nM,113 ± 6 nM,142 ± 11 nM,142 ± 11 nM,227 ± 14 nM,227 ± 14 nM,184 ± 30.3 nM,1.3,174 ± 12.5 nM,0.8,315 nM,55%,149 to 151 °C,–
"CC(=O)O[C@H]1C(=O)[C@@]2(C)[C@H]([C@H](OC(=O)c3ccccc3)[C@]3(O)C[C@H](OC(=O)[C@H](O)[C@@H](NC(=O)c4ccccc4)c4ccccc4)C(C)=C1C3(C)C)[C@]1(OC(C)=O)CO[C@@H]1C[C@@H]2O [paclitaxel, reference compound]",–,–,–,2 ± 0.1 nM,–,1.5 ± 0.05 nM,1.5 ± 0.05 nM,–,–,21.1 ± 1.8 nM,14.1,2330 nM,–,–,–,–,initiated mitotic accumulation
"CCOC(=O)c1[nH]c(C#N)c(-c2ccc(OC)c(OC)c2OC)c1Br [Example 11, 3-Bromo-4-(2,3,4-trimethoxyphenyl)-5-cyano-1H-pyrrole 2-carboxylic acid ethyl ester]",–,–,–,19.6 ± 1.8 nM,19.6 ± 1.8 nM,20.6 ± 1.9 nM,20.6 ± 1.9 nM,26.2 ± 2.1 nM,26.2 ± 2.1 nM,26.1 ± 0.8 nM,1.3,42.2 ± 5.5 nM,1.6,88.1 nM,78%,173 to 176 °C,–
"CCOC(=O)c1[nH]c(C=NOC)c(-c2ccc(OC)c(OC)c2OC)c1Br (mixture of isomers) [Example 12, Cis/Trans-3-Bromo-4-(2,3,4-trimethoxyphenyl)-5-(O-methyl-oximino)-1H-pyrrole-2-carboxylic acid ethyl ester]",–,–,–,7.6 ± 0.5 nM,7.6 ± 0.5 nM,11.9 ± 1.3 nM,11.9 ± 1.3 nM,13.8 ± 0.9 nM,13.8 ± 0.9 nM,12.5 ± 0.2 nM,1.1,17.5 ± 1.2 nM,1.3,22 nM,99%,125 to 128 °C,–
"CCOC(=O)c1[nH]c(C=O)c(-c2ccc(OC)c(OC)c2OC)c1Br [Example 2, 3-Bromo-4-(2,3,4-trimethoxyphenyl)-5-formyl-1H-pyrrole 2-carboxylic acid ethyl ester]",–,–,–,57 ± 5 nM,57 ± 5 nM,31.7 ± 4.8 nM,31.7 ± 4.8 nM,72 ± 9.1 nM,72 ± 9.1 nM,104 ± 6.5 nM,3.3,82.2 ± 9.4 nM,1.1,66 nM,68%,158 to 160 °C,–
